Experimental data published in ChEMBL document CHEMBL1141090, “Rational design, synthesis, and characterization of novel inhibitors for human beta1,4-galactosyltransferase” (J Med Chem, 2005).

Legend:
[1] = target: T1, Beta-1,4-galactosyltransferase 1 (Homo sapiens, UniProt P15291); assay: Inhibitory constant against human Beta-1,4-galactosyltransferase I; N.I. is inactive
T1 sequence (P15291 whole entry): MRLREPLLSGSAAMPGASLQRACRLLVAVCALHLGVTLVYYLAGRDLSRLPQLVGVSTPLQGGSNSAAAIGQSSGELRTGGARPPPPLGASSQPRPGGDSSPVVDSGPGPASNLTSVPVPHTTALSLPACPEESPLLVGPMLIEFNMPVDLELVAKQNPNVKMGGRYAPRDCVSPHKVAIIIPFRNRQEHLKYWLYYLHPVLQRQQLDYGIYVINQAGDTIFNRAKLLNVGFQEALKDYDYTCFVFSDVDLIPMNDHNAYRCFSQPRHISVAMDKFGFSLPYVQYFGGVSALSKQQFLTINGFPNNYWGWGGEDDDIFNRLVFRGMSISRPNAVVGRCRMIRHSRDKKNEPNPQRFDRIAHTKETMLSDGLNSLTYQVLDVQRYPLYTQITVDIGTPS

[2] = target: T1, Beta-1,4-galactosyltransferase 1; assay: Inhibitory constant against human recombinant Beta-1,4-galactosyltransferase I; N.I. is inactive

Ki [1] | Ki [2] | Structure (SMILES)
Not Active | – | O=c1ccn([C@@H]2O[C@H](COP(=O)(O)OP(=O)(O)O[C@H]3O[C@@H](CNCCCCCCOCc4ccc5ccccc5c4)[C@H](O)[C@H](O)[C@@H]3O)[C@@H](O)[C@H]2O)c(=O)[nH]1
– | Not Active | O=c1ccn([C@@H]2O[C@H](COP(=O)(O)OP(=O)(O)O[C@H]3O[C@@H](CNCc4cccc5ccccc45)[C@H](O)[C@H](O)[C@@H]3O)[C@@H](O)[C@H]2O)c(=O)[nH]1
